Target: T1, C-CBL (46-435) (Homo sapiens, UniProt P22681)
T1 construct: N-terminal biotinylated WT CBL-B (36-427) and C-CBL (46-435) were captured on a streptavidin (SA) coated sensor chip
T1 sequence (P22681 46-435): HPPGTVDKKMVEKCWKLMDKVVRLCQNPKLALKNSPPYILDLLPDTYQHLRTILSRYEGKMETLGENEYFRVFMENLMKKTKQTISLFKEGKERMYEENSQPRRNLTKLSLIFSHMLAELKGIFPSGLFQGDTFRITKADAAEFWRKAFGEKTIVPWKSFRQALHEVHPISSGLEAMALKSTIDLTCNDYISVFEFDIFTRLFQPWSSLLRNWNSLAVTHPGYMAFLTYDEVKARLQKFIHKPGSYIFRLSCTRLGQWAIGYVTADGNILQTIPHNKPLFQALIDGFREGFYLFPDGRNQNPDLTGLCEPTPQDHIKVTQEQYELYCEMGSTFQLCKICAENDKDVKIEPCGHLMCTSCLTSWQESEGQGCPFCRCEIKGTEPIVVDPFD
Assay: Surface Plasmon Resonance (SPR) assay, binding affinity and kinetics, C-CBL
Settings: SPR at 10° C., biotinylated C-CBL (46-435) on streptavidin chip; geometric mean; read-out: C-CBL SPR Kd (nM) GMean
Outline: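 SPR kinetics at 10° C, run either single-cycle (0.001–1 μM, 3-fold, 6 points, 120 s on, >5400 s off) or multi-cycle (10 points, 2-fold, top 10 or 100 μM, 90 s on). Proteins were N-biotinylated CBL-B (36-427) and C-CBL (46-435) on SA surfaces, in pH 7.2 HEPES, 2% DMSO.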

SMILES	Kd [nM]
C[C@@H](NC1CC(F)(F)C1)c1nc(C(F)(F)F)cc2c(-c3cccc([C@H](c4nncn4C)C4CCC4)c3)n[nH]c12 (single isomer, unassigned) [Example D91]	35.4
Cn1cnnc1[C@@H](c1cccc(-c2n[nH]c3c(CN[C@H]4CCC(F)(F)C4)nc(C(F)(F)F)cc23)c1)C1CCC1 (single isomer, unassigned) [Example G1]	60.8
CC(C)NC(C)c1nc(C(F)(F)F)cc2c(-c3cccc([C@H](c4nncn4C)C4CCC4)c3)n[nH]c12 (single isomer, unassigned) [Example C34]	172
CC(NC1CNC1)c1nc(C(F)(F)F)cc2c(-c3cccc(C4(Cc5nncn5C)COC4)c3)n[nH]c12 (single isomer, unassigned) [Example C28, N-{(1ξ)-1-[3-(3-{3-[(4-methyl-4H-1,2,4-triazol-3-yl)methyl]oxetan-3-yl}phenyl)-5-(trifluoromethyl)-1H-pyrazolo[3,4-c]pyridin-7-yl]ethyl}azetidin-3-amine]	125
C[C@@H](N[C@H]1CCC(F)(F)C1)c1nc(C(F)(F)F)cc2c(-c3cccc([C@H](c4nncn4C)C4CCC4)c3)n[nH]c12 [Example C9]	22.1
C[C@H](N[C@@H]1CCC[C@@H]1O)c1nc(C(F)(F)F)cc2c(-c3cccc([C@H](c4nncn4C)C4CCC4)c3)n[nH]c12 (single isomer, unassigned) [Example D15]	6.2
CC(c1nc(C(F)(F)F)cc2c(-c3cccc(C4(Cc5nncn5C)COC4)c3)n[nH]c12)N1CCOCC1 (single isomer, unassigned) [Example C24, 3-(3-{3-[(4-methyl-4H-1,2,4-triazol-3-yl)methyl]oxetan-3-yl}phenyl)-7-[(1ξ)-1-(morpholin-4-yl)ethyl]-5-(trifluoromethyl)-1H-pyrazolo[3,4-c]pyridine]	146
C[C@H](c1nc(C(F)(F)F)cc2c(-c3cccc(C4(Cc5nncn5C)COC4)c3)n[nH]c12)N1C[C@H](F)[C@@H](F)C1 (single isomer, unassigned) [Example D8]	177

Reference: US20260125375A1 (Pfizer Inc., priority 2022, published 2026)
